Legend:
Assay in all cases: combination Emax (second highest fraction inhibited in the dose matrix, 72 h); higher = more inhibition; extreme values may be limits of the assay
[1] = system: NCI-H1581 (Non-Small Cell Lung Carcinoma)
Procedure, shortened: (§1)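 Cell lines in DMEM/F12 or RPMI with 10% FBS were plated in 1536-well plates, held 24 hours at 37°C, 5% CO2, then given two-drug dose matrices for 72 hours (DMSO typically 0.2%). Viability was read by CellTiter-Glo 2.0 luminescence and scaled as inhibition from 0 (vehicle wells) to 1 (blank wells). Combination Emax is the second-highest inhibition in the matrix; Bliss excess is observed combination effect minus expected EA + EB − EA·EB, EA and EB being single-agent effects.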

LN-405 (Glioblastoma) = system: LN-405 (Glioblastoma)
Procedure, shortened: as §1

NCI-H2591 (Mesothelioma) = system: NCI-H2591 (Mesothelioma)
Procedure, shortened: as §1

[2] = system: COLO-824 (Breast Carcinoma)
Procedure, shortened: as §1

[3] = system: ECC10 (Gastric Carcinoma)
Procedure, shortened: as §1

U-2-OS (Osteosarcoma) = system: U-2-OS (Osteosarcoma)
Procedure, shortened: as §1

[4] = system: NCI-H2141 (Small Cell Lung Carcinoma)
Procedure, shortened: as §1

[5] = system: SK-MG-1 (Low Grade Glioma)
Procedure, shortened: as §1

[6] = system: NCI-H1650 (Lung Adenocarcinoma)
Procedure, shortened: as §1

GI-ME-N (Neuroblastoma) = system: GI-ME-N (Neuroblastoma)
Procedure, shortened: as §1

PA-1 (Ovarian Carcinoma) = system: PA-1 (Ovarian Carcinoma)
Procedure, shortened: as §1

[7] = system: KARPAS-422 (B-Cell Non-Hodgkin's Lymphoma)
Procedure, shortened: as §1

[8] = system: CCK-81 (Colorectal Carcinoma)
Procedure, shortened: as §1

[9] = system: NCI-H64 (Small Cell Lung Carcinoma)
Procedure, shortened: as §1

[10] = system: COLO-320-HSR (Colorectal Carcinoma)
Procedure, shortened: as §1

[11] = system: NCI-H2066 (Squamous Cell Lung Carcinoma)
Procedure, shortened: as §1

[12] = system: NCI-H1693 (Lung Adenocarcinoma)
Procedure, shortened: as §1

[13] = system: SK-MES-1 (Squamous Cell Lung Carcinoma)
Procedure, shortened: as §1

[14] = system: NCI-H1666 (Lung Adenocarcinoma)
Procedure, shortened: as §1

[15] = system: MDST8 (Colorectal Carcinoma)
Procedure, shortened: as §1

Row | Compound | combination Emax [1] | combination Emax (LN-405 (Glioblastoma)) | combination Emax (NCI-H2591 (Mesothelioma)) | combination Emax [2] | combination Emax [3] | combination Emax (U-2-OS (Osteosarcoma)) | combination Emax [4] | combination Emax [5] | combination Emax [6] | combination Emax (GI-ME-N (Neuroblastoma)) | combination Emax (PA-1 (Ovarian Carcinoma)) | combination Emax [7] | combination Emax [8] | combination Emax [9] | combination Emax [10] | combination Emax [11] | combination Emax [12] | combination Emax [13] | combination Emax [14] | combination Emax [15]
1 | CN(CCO)CC[C@H](CSc1ccccc1)Nc1ccc(S(=O)(=O)NC(=O)c2ccc(N3CCC([C@@H](O)c4ccccc4-c4ccc(Cl)cc4)CC3)cc2)cc1S(=O)(=O)C(F)(F)F [AZD4320] + C[C@@H](Nc1cc(F)cc(F)c1)c1cc(C(=O)N(C)C)cc2c(=O)cc(N3CCOCC3)oc12 [AZD8186] (first compound max 1 µM, 7x7, partner max 3 µM) | 0.287 | 0.615 | 0.214 | 1 | 1 | 0.382 | 0.886 | 0.652 | 0.402 | 0.469 | 0.927 | 0.999 | 0.338 | 0.967 | 0.236 | 0.64 | 0.386 | 0.434 | 0.42 | 
2 | CN(CCO)CC[C@H](CSc1ccccc1)Nc1ccc(S(=O)(=O)NC(=O)c2ccc(N3CCC([C@@H](O)c4ccccc4-c4ccc(Cl)cc4)CC3)cc2)cc1S(=O)(=O)C(F)(F)F [AZD4320] + Cc1cc2ncnn2cc1Nc1ncc2c(n1)n(C1CCOCC1)c(=O)n2C [AZD7648] (first compound max 1 µM, 7x7, partner max 10 µM) | 0.271 | 0.36 | 0.188 | 1 | 1 | 0.238 | 0.829 | 0.295 | 0.245 | 0.153 | 0.61 |  | 0.111 | 0.964 | 0.0909 | 0.885 | 0.174 | 0.127 | 0.197 | 0.821
3 | COc1nnc2ccc(N3CCC(c4ccc(OCCN5CCN(C)C(=O)[C@H]5C)cc4)CC3)nn12 [AZD5153] + CN(CC[C@H](CSC1=CC=CC=C1)NC2=C(C=C(C=C2)S(=O)(=O)NC(=O)C3=CC=C(C=C3)N4CCC(CC4)[C@H](C5=CC=CC=C5C6=CC=C(C=C6)Cl)O)S(=O)(=O)C(F)(F)F)CCO [AZD4320] (first compound max 1 µM, 7x7, partner max 1 µM) |  | 0.723 | 0.395 | 1 |  | 0.319 | 0.941 | 0.566 | 0.419 | 0.246 | 0.9 |  |  |  |  |  | 0.628 | 0.631 |  | 0.918
4 | C[C@@H]1COCCN1c1cc(C2([S@](C)(=N)=O)CC2)nc(-c2ccnc3[nH]ccc23)n1 [AZD6738] + O=C(c1cc(Cc2n[nH]c(=O)c3ccccc23)ccc1F)N1CCN(C(=O)C2CC2)CC1 [Olaparib] (first compound max 10 µM, 7x7, partner max 10 µM) | 0.528 | 0.391 | 0.348 | 0.595 | 0.54 | 0.723 | 0.51 | 0.552 | 0.349 | 0.486 | 0.768 | 0.556 |  | 0.692 | 0.475 | 0.388 | 0.298 | 0.696 | 0.331 | 0.677
5 | CC(=O)c1c(C)c2cnc(Nc3ccc(N4CCNCC4)cn3)nc2n(C2CCCC2)c1=O [Palbociclib] + CN(CC[C@H](CSC1=CC=CC=C1)NC2=C(C=C(C=C2)S(=O)(=O)NC(=O)C3=CC=C(C=C3)N4CCC(CC4)[C@H](C5=CC=CC=C5C6=CC=C(C=C6)Cl)O)S(=O)(=O)C(F)(F)F)CCO [AZD4320] (first compound max 10 µM, 7x7, partner max 1 µM) |  | 0.69 | 0.249 | 1 |  | 0.355 | 0.883 | 0.563 | 0.184 | 0.211 | 0.872 |  |  |  |  |  | 0.803 | 0.289 |  | 0.781
6 | CCc1c2c(nc3ccc(O)cc13)-c1cc3c(c(=O)n1C2)COC(=O)[C@]3(O)CC [SN-38] + O=C(c1cc(Cc2n[nH]c(=O)c3ccccc23)ccc1F)N1CCN(C(=O)C2CC2)CC1 [Olaparib] (first compound max 0.3 µM, 7x7, partner max 10 µM) | 0.722 | 0.413 | 0.575 |  | 1 | 0.205 | 0.423 | 0.821 | 0.575 | 0.494 | 0.848 | 0.957 | 0.587 | 0.396 | 0.261 | 0.0964 |  |  | 0.532 | 0.745
7 | C[C@@H](c1ccc2nccn2c1)n1nnc2ncc(-c3cnn(C)c3)nc21 [Savolitinib] + CN(CC[C@H](CSC1=CC=CC=C1)NC2=C(C=C(C=C2)S(=O)(=O)NC(=O)C3=CC=C(C=C3)N4CCC(CC4)[C@H](C5=CC=CC=C5C6=CC=C(C=C6)Cl)O)S(=O)(=O)C(F)(F)F)CCO [AZD4320] (first compound max 1 µM, 7x7, partner max 1 µM) |  | 0.455 | 0.15 | 1 |  | 0.385 | 0.744 | 0.152 | 0.182 | 0.229 | 0.465 |  |  |  |  |  | 0.182 | 0.18 |  | 0.626

Reference: the supplement of paper PMC11061612
